As usually defined, the pIC50 is the negative decadic logarithm of the IC50, by convention in mol/L. Lower therefore signals a large IC50. For orientation: melting point means the temperature of the solid-liquid transition.

The structures appear in SMILES notation. pIC50: −log10 of the molar value.

This is an account of results in US7425580B2, “(Diaryl-methyl)-malononitriles and their use as estrogen receptor ligands” (Wyeth, priority 2004, dated 2008).

Data set [1] deals with NF-κB. Briefly: NF-κB luciferase reporter in Ad5-wt-ER infected HAECT-1 cells (IL-1β stimulated). The settings on record: for Emax: relative to maximal inhibition observed with E2, read-out: NF-κB Efficacy. The class given is cell-based, human. The procedure: (§1) T-175 flasks of 100% confluent HAECT-1 cells (immortalized human aortic endothelial cells) were washed with 8 ml of HBSS (HEPES buffered saline solution) and infected for four hours with 6 ml of a 1:10 dilution of Ad5-wt-hERα virus (an adenovirus transfection vector that mediates CMV promoter driven expression of human ERα) in phenol red free Endothelial Cell Basal medium (Clonetics, San Diego Calif., Catalog # CC-3129) containing 0.25% bovine serum albumin (EBM-BSA). After four hours, cells were washed with EBM-BSA and incubated overnight in the same medium. Following overnight incubation, cells were washed with EBM-BSA and infected for 2 hours with 6 ml of a 1:10 dilution of Ad5-3×(NFKκB).Luc virus (Adenovirus luciferase expression vector driven by 3 repeats of the MHC NFκβ site 5′ to the thymidine kinase promoter) in EBM-BSA. After two hours, cells were washed and incubated at 34° C. for 1 hour. Cells were then washed, trypsinized, counted and resuspended in 95% FBS/5% dimethylsulfoxide at a concentration of 4×10^6 cells/ml, frozen as 1 or 5 ml aliquots in cryo-vials and stored at −150° C. Control (no ER infection) cells were processed as above without Ad5-wt-hERα virus infection.
(§2) ERα infected HAECT-1 cells or control cells were thawed, diluted 42× in warm EBM-BSA, plated into 96-well plates at 0.1 ml/well and incubated for 4 h at 34° C. Test compounds were added to the cells as 2× stocks in EBM-BSA containing 2 ng/ml IL-1β (R&D Systems) and plates were returned to the incubator (34° C.). After 15-20 h, 100 μl aliquots of media were removed from the cells and assayed for IL-6 content using a BioSource human IL-6 ELISA Kit. Cells were subsequently washed with 300 μl of Dulbecco's phosphate buffered saline and lysed in 50 μl of Cell Culture Lysis Reagent (Promega). Luciferase was determined on a Wallac Victor^2 Luminometer (Gaithersburg, Md.) using 10 μl of lysate and mixing with 100 μl of Promega Luciferase Assay reagent. Creatine kinase was determined from the rate of increase in A340 following addition of 100 μl of CK assay reagent (Sigma, cat. No 47-10) to the remainder of the cell lysate.
(§3) For IC50 and EC50 calculations, mean IL-6, luciferase or CK values versus log10 of the compound concentration were fitted to a four parameter logistic equation. The IC50/EC50 value, ‘Hill slope’, upper and lower limits of the curve were iteratively estimated.
(In general: A reporter such as luciferase makes a cellular process visible.)

The test system of a further data set is IL-6. Briefly: IL-6 expression (ELISA) in Ad5-wt-ER infected HAECT-1 cells (IL-1β stimulated). The class given is cell-based, human. The settings on record: for IL-6 Efficacy: relative to maximal inhibition observed with E2. The protocol:
as §1, §2, §3
(ELISA stands for enzyme-linked immunosorbent assay.)

The next data set deals with creatine kinase. Briefly: Creatine kinase expression in Ad5-wt-ER infected HAECT-1 cells. The class given is cell-based, human. The settings on record: for pIC50: Homo sapiens, HAECT1, stimulation of CK; for CK Efficacy: relative to maximal stimulation observed with E2. The protocol: as §1, §2, §3
Data set [2] relates to NF-κB. Briefly: NF-κB luciferase reporter in non ER infected HAECT-1 cells. The class given is cell-based, human. The procedure:
T-175 flasks of 100% confluent HAECT-1 cells (immortalized human aortic endothelial cells) were washed with 8 ml of HBSS (HEPES buffered saline solution) and infected for four hours with 6 ml of a 1:10 dilution of Ad5-wt-hERα virus (an adenovirus transfection vector that mediates CMV promoter driven expression of human ERα) in phenol red free Endothelial Cell Basal medium (Clonetics, San Diego Calif., Catalog # CC-3129) containing 0.25% bovine serum albumin (EBM-BSA). After four hours, cells were washed with EBM-BSA and incubated overnight in the same medium. […] Cells were then washed, trypsinized, counted and resuspended in 95% FBS/5% dimethylsulfoxide at a concentration of 4×10^6 cells/ml, frozen as 1 or 5 ml aliquots in cryo-vials and stored at −150° C. […]
ERα infected HAECT-1 cells or control cells were thawed, diluted 42× in warm EBM-BSA, plated into 96-well plates at 0.1 ml/well and incubated for 4 h at 34° C. […] Luciferase was determined on a Wallac Victor^2 Luminometer (Gaithersburg, Md.) using 10 μl of lysate and mixing with 100 μl of Promega Luciferase Assay reagent. Creatine kinase was determined from the rate of increase in A340 following addition of 100 μl of CK assay reagent (Sigma, cat. No 47-10) to the remainder of the cell lysate. […]

The next data set relates to uterine wet weight. Description: Uterine wet weight increase in ovariectomized C57BL/6 mice. The class given is in vivo. The settings on record: EE 0.01 mg/kg/day, test compound 10 mg/kg/day, gavage, 5 weeks; for Uterine Wet Weight Increase, Fold Increase: compared to vehicle control. The protocol: Ovariectomized C57BL/6 mice (16-20 g) (Taconic) were separated into groups of 8. After 5-7 days of recuperation, the mice were fed a chow diet or an atherogenic diet (15.75% fat, 1.25% cholesterol and 0.5% sodium cholate) (Purina diet #21539). EE or test compound was administered once daily by gavage in a methylcellulose/tween vehicle (0.1 ml per mouse) for 5 weeks. At the end of the experimental period, the liver was collected and uterine wet weight was recorded. To determine the ability of estrogens to regulate the development of diet-induced inflammation in the liver, gene expression changes resulting from the atherogenic diet were monitored. Ovariectomized C57BL/6 mice were fed either a chow or atherogenic diet and treated daily with EE (0.01 mg/kg) or test compound (10 mg/kg) (Table 3).

The subject of data set [3] is NF-κB target genes (MHC invariant chain, VCAM-1, RANTES, TNF-α mRNA). Description: Liver inflammatory gene expression (real time RT-PCR) in ovariectomized C57BL/6 mice on atherogenic diet. Conditions: EE 0.01 mg/kg daily. The class given is in vivo. The protocol: Ovariectomized C57BL/6 mice (16-20 g) (Taconic) were separated into groups of 8. After 5-7 days of recuperation, the mice were fed a chow diet or an atherogenic diet (15.75% fat, 1.25% cholesterol and 0.5% sodium cholate) (Purina diet #21539). EE or test compound was administered once daily by gavage in a methylcellulose/tween vehicle (0.1 ml per mouse) for 5 weeks. At the end of the experimental period, the liver was collected and uterine wet weight was recorded.
Liver total RNA was prepared by using Trizol reagent (BRL). Estrogen and compound regulation of NF-κB target genes were verified by real time RT-PCR using an ABI PRISM 7700 Sequence Detection System according to the manufacturer's protocol (Applied Biosystems). The data was analyzed using the Sequence Detector v1.7 software (Applied Biosystems) and normalized to GAPDH using the Applied Biosystems primer set.
To determine the ability of estrogens to regulate the development of diet-induced inflammation in the liver, gene expression changes resulting from the atherogenic diet were monitored. Ovariectomized C57BL/6 mice were fed either a chow or atherogenic diet and treated daily with EE (0.01 mg/kg) or test compound (10 mg/kg) (Table 3).
A general note: Real-time PCR tracks product formation cycle by cycle.

The mark [4] stands for this setting: Ad5-wt-ER infected HAECT-1 cells.
[5] abbreviates: Homo sapiens, HAECT1, Ad5-wt-ER infected HAECT-1 cells.

Consider `COc1ccccc1C(c1cccc2ccccc12)C(C)(C#N)C#N` (stereo not drawn) [Ex. 7, 2-[(2-Methoxyphenyl)(1-naphthyl)methyl]-2-methylmalononitrile], for which the melting point fell in the range of 175 to 177 °C. In addition, the pIC50 in the data set with NF-κB [1] (setting [4]) is 7.76. Further, in the data set on NF-κB [1] (setting [5]), the pIC50 is 8.00 and the Emax turned out to be 98%. Besides, the “IL-6 Efficacy” value with IL-6 (setting [4]) came out at 144%. Further, the pIC50 in the data set on IL-6 (setting [5]) was 7.62. Moreover, in the data set with creatine kinase, the pIC50 was 7.51 and the “CK Efficacy” value amounted to 28%. In addition, the “NF-κB IC50” value in the data set on NF-κB [2] was “inactive”. Besides, in the data set on uterine wet weight, the “Uterine Wet Weight Increase, Efficacy” value was 18% and the “Uterine Wet Weight Increase, Fold Increase” value was determined as 2.2.
On to `C[C@]12CC[C@@H]3c4ccc(O)cc4CC[C@H]3[C@@H]1CC[C@@H]2O` [Example E2, 17β-estradiol, reference compound], for which, in the data set on IL-6 (setting [4]), the pIC50 is 8.77 and the “IL-6 Efficacy” value was 100%. In the data set on creatine kinase, the pIC50 is 8.24 and the “CK Efficacy” value is 100%.
In the case of `COc1ccc(C(c2cccc3ccccc23)C(C#N)C#N)cc1` (stereo not drawn) [Ex. 6, 2-[(4-Methoxyphenyl)(1-naphthyl)methyl]malononitrile], in the data set with NF-κB [1] (setting [5]), the pIC50 was 5.78 and the Emax turned out to be 137%.
Regarding `C#C[C@]1(O)CC[C@H]2[C@@H]3CCc4cc(O)ccc4[C@H]3CC[C@@]21C` [EE, 17α-ethinyl-17β-estradiol, reference compound], in the data set with uterine wet weight, the “Uterine Wet Weight Increase, Efficacy” value stood at 100% and the “Uterine Wet Weight Increase, Fold Increase” value is listed as 5.0. The “Atherogenic diet induction of mRNA for MHC invariant chain, VCAM-1, RANTES and TNF-α in liver” value in data set [3] is “strongly suppressed”.
For the compound `COc1cccc(C(c2cccc3ccccc23)C(C#N)C#N)c1` (stereo not drawn) [Ex. 3, 2-[(3-Methoxyphenyl)(1-naphthyl)methyl]malononitrile], in the data set with NF-κB [1] (setting [5]), the pIC50 was 6.07 and the Emax was 138%. Also, the “IL-6 Efficacy” value in the data set on IL-6 (setting [4]) stood at 92%. The same compound had a pIC50 in the data set with IL-6 (setting [5]) of 5.98.
For `Cc1ccccc1C(c1cccc2ccccc12)C(C#N)C#N` (stereo not drawn) [Ex. 4, 2-[(2-Methylphenyl)(1-naphthyl)methyl]malononitrile], the “IL-6 Efficacy” value in the data set with IL-6 (setting [4]) amounted to 127%. This compound also had a pIC50 with IL-6 (setting [5]) of 6.00.
In turn, `N#CC(C#N)C(c1cccc2ccccc12)c1cccc2ccccc12` [Ex. 8, 2-[Di(1-naphthyl)methyl]malononitrile] registered a melting point of 179 to 181 °C. Also, the pIC50 with NF-κB [1] (setting [4]) was 6.24. For the same compound, in the data set on NF-κB [1] (setting [5]), the pIC50 is 6.11 and the Emax came out at 176%. Further, the “IL-6 Efficacy” value in the data set with IL-6 (setting [4]) was 152%. This compound also had a pIC50 with IL-6 (setting [5]) of 6.25.
Consider `Cc1ccc(C(c2cccc3ccccc23)C(C#N)C#N)cc1` (stereo not drawn) [Ex. 5, 2-[(4-Methylphenyl)(1-naphthyl)methyl]malononitrile], for which, in the data set with NF-κB [1] (setting [5]), the pIC50 is 5.78 and the Emax was 154%.
`COc1ccccc1C(c1cccc2ccccc12)C(C#N)C#N` (stereo not drawn) [Ex. 1, 2-[(2-Methoxyphenyl)(1-naphthyl)methyl]malononitrile]: the “IL-6 Efficacy” value in the data set with IL-6 (setting [4]) is reported as 118%. Further, the figures for the pIC50 with IL-6 (setting [5]) and with creatine kinase were 5.91 and 8.06, respectively. Further, the “CK Efficacy” value with creatine kinase is listed as 27%. In addition, the “NF-κB IC50” value in the data set with NF-κB [2] is “inactive”.
